ChEMBL document CHEMBL3352354, “Novel FTY720-Based Compounds Stimulate Neurotrophin Expression and Phosphatase Activity in Dopaminergic Cells” (ACS Med Chem Lett, 2014)
Blank lines part the entries; values can stand above or below the molecule they belong to. The source made the active and inactive calls. No cut-off for these calls is given here.

Columns and labels:
[1] = Neuroprotective activity in mouse MN9D cells assessed as stimulation of BDNF expression at 0.16 uM after 24 hrs; type: functional, cell-based
[2] = Cytotoxicity against mouse MN9D cells assessed as metabolic activity at > 1.5 uM after 72 hrs by MTS assay; type: ADME, cell-based
MN9D [3] = assay: Neuroprotective activity in mouse MN9D cells assessed as blocking of TNF-alpha associated toxicity at 0.16 uM after 72 hrs by Trypan blue staining; type: functional, cell-based
MN9D [4] = assay: Induction of PP2A catalytic subunit activity in mouse MN9D cells assessed as phosphate level at 5 uM; type: cell-based
Homo sapiens [5] = species on record: Homo sapiens; assay: Induction of recombinant PP2A catalytic subunit (unknown origin) activity assessed as phosphate level at 5 uM relative to control
[6] = Neuroprotective activity in mouse MN9D cells assessed as cell division at 0.04 to 0.16 uM after 72 hrs by DAPI staining (reference value: 100 +/- 4.15%); type: functional
Homo sapiens [7] = species on record: Homo sapiens; assay: Induction of recombinant PP2A catalytic subunit (unknown origin) activity assessed as phosphate level using threonine-phosphopeptide at 5 uM
PC-12 = assay: Induction of PP2A catalytic subunit activity in rat PC12 cells assessed as phosphate level at 5 uM measured 30 to 120 mins; type: cell-based

SMILES: CCCCCCCCc1ccc(CCC(CO)(CO)NC(=O)CC[P+](c2ccccc2)(c2ccccc2)c2ccccc2)cc1.[Br-]
Activity [1]: Active
Activity [2]: Toxic
inhibition (MN9D [3]): Active
Activity (MN9D [4]): Active
fold change (FC) (Homo sapiens [5]): 4
Activity [6]: 101.37%

SMILES: CCCCCCCCCCCCC/C=C/[C@H](O)[C@@H](CO)NC(C)=O
Activity (Homo sapiens [7]): Active
fold change (FC) (Homo sapiens [5]): 8

SMILES: CCCCCCCCc1ccc(CCC(CO)(CO)NC(C)=O)cc1
Activity [1]: Active
Activity [2]: Toxic
inhibition (MN9D [3]): Active
Activity (MN9D [4]): Active
fold change (FC) (Homo sapiens [5]): 8
Activity [6]: 91.44%

SMILES: CCCCCCCCc1ccc(CCC(N)(CO)CO)cc1 [FINGOLIMOD]
Activity [1]: Active
Activity (PC-12): Active
Activity [2]: Toxic
Activity (Homo sapiens [7]): Active
inhibition (MN9D [3]): Active
Activity (MN9D [4]): Active
fold change (FC) (Homo sapiens [5]): 4
Activity [6]: 98%

Second part, the molecule after the results:

Activity (Homo sapiens [7]): inactive
SMILES: CCCCCCCCCCCCC/C=C/[C@H](O)[C@@H](CO)NC(=O)CCCCCCCCC

Activity (Homo sapiens [7]): Active
SMILES: CCCCCCCCCCCCC/C=C/[C@H](O)[C@@H](CO)NC(=O)CCCCC
